The values that follow come from PMC12040169 (PLOS Biology, 2025).

The nature of one data set: in vitro. The note with it: human, hela cells, % viability.
In the case of `Cc1c(NC(=O)CSCc2ccc(Cl)cc2Cl)cccc1C(=O)O` [CBK131704], the viability at 28.5 h, 10 µM came out at 104%. Still for that read-out and setting: next, `COc1ccc(Nc2nc(-c3ccc(F)cc3)cs2)c(OC)c1` [CBK131705]: 87.5%. As to `O=C(CSCc1ccc([N+](=O)[O-])cc1)Nc1ccc(O)cc1C(=O)O` [CBK131710], the viability at 28.5 h, 10 µM was 89.4%. Consider `NS(=O)(=O)c1ccc(C(=O)N2CCC3(CCN(C(=O)c4ccoc4)C3)C2)cc1` (stereo not shown) [CBK131736], for which the viability at 28.5 h, 10 µM stood at 95.2%.

`O=C(c1cncnc1)N1CCC2(CCN(C(=O)c3ccoc3)C2)C1` (stereo not shown) [CBK131755]: the viability at 28.5 h, 10 µM was 86.2%. Still for that read-out and setting: next, `COc1ccc(C(=O)N2CCC3(CCN(C(=O)Cc4c[nH]cn4)C3)C2)cc1OC` (stereo not shown) [CBK131768]: 107%; `COc1ccc(C(=O)N2CCC3(CCN(C(=O)CC4CCCCC4)C3)C2)cc1OC` (stereo not shown) [CBK131770]: 94.7%. On the same count and under the same terms, with `COc1ccc(C(=O)N2CCC3(CCN(C(=O)c4cccc(C#N)c4)C3)C2)cc1OC` (stereo not shown) [CBK131773] the figure was 98.3%. Same read-out and setting: next, `COc1ccc(C(=O)N2CCC3(CCN(C(=O)/C=C/c4ccc5c(c4)OCO5)C3)C2)cc1OC` (stereo not shown) [CBK131775]: 96.6%; `COc1ccc(C(=O)N2CCC3(CCN(C(=O)Cc4cc(C)no4)C3)C2)cc1OC` (stereo not shown) [CBK131784]: 106%.

Regarding `COc1ccc(OC(=O)C2COc3ccccc3O2)cc1` (stereo not shown) [CBK131816], the viability at 28.5 h, 10 µM turned out to be 100%. The same measure, in the same setting: next, `CS(=O)(=O)c1ccc(Nc2cncc(N3CCC(Sc4ccccn4)CC3)c2C#N)cc1` [CBK131843]: 85.2%; `CCOC(=O)c1sc2nc(N3CCOCC3)c3c(c2c1N)CCCC3` [CBK131870]: 100%.

Turning to `CCc1nc2sc(C(N)=O)c(N)c2c2c1CCCC2` [CBK131872], the viability at 28.5 h, 10 µM came out at 101%. As to `COc1ccc(CSc2nc(N)c3c4c(sc3n2)CCCC4)cc1` [CBK131876], the viability at 28.5 h, 10 µM stood at 85.8%. On the same count and under the same terms, next, `COc1ccc(-c2c3c(nc4sc(C(=O)N5CCOCC5)c(N)c24)CC(C)(C)CC3=O)cc1` [CBK131884]: 91.7%; `O=C(O)CCc1ccc(-c2ccc(F)cc2)n1-c1cc(Cl)ccc1O` [CBK131891]: 92%; `O=C(O)CCc1ccc(-c2ccc(Br)cc2)n1-c1ccccc1O` [CBK131892]: 93.9%.

As to `COc1ccc(-c2ccc(CCC(=O)O)n2-c2ccc(N(C)C)cc2)cc1` [CBK131895], the viability at 28.5 h, 10 µM was found to be 110%. In the case of `COc1ccc(CCC(=O)Nc2cccc(-c3ccc(OC4CCNCC4)cc3)c2)cc1OC` [CBK131925T], the viability at 28.5 h, 10 µM came to 100%. On to `CS(=O)(=O)c1ccc(Nc2ccc3c(c2)COC2(CCN(C(=O)Cc4ccc(F)cc4F)C2)O3)cc1` (stereo not shown) [CBK131948], for which the viability at 28.5 h, 10 µM is 90.8%.

As to `O=C(Cc1cc(F)cc(F)c1F)N1CCC(Sc2ccc(-c3ccccc3)cc2)CC1` [CBK131952], the viability at 28.5 h, 10 µM was 94.5%. In the case of `O=C(c1ccc2c(c1)CCO2)N1CCC(Sc2ccc(-c3ccccc3)cc2)CC1` [CBK131953], the viability at 28.5 h, 10 µM was determined as 94.8%. `O=C(c1ccc2c(c1)CCO2)N1CCC(S(=O)(=O)c2ccc(-c3ccccc3)cc2)CC1` [CBK131957]: the viability at 28.5 h, 10 µM was found to be 109%.

On to `CC(C)(C)OC(=O)N1CCC2(CC1)NC(=O)c1cc(-c3cccc(S(C)(=O)=O)c3)ccc1O2` [CBK131967], for which the viability at 28.5 h, 10 µM was 102%. On the same count and under the same terms, next, `CC(=O)c1cccc(-c2ccc3c(c2)C(=O)NC2(CCN(C(=O)OC(C)(C)C)CC2)O3)c1` [CBK131969]: 95.4%. Still for that read-out and setting: with `O=C(c1c(F)cc(-c2cncc(-c3ccc(O)cc3)n2)cc1F)N1CCOCC1` [CBK131973] the figure was 90.5%. Turning to `COc1cc(CN2CCCC3(CCN(C(=O)c4cc(F)c(F)cc4F)C3)C2)cc(OC)c1OC` (stereo not shown) [CBK131988], the viability at 28.5 h, 10 µM amounted to 101%.

Consider `O=C(c1cc(F)c(F)cc1F)N1CCC2(CCCN(Cc3ccc(Cl)c(Cl)c3)C2)C1` (stereo not shown) [CBK131990], for which the viability at 28.5 h, 10 µM is 95.1%. The same measure, in the same setting: next, `N#Cc1cccc(CN2CCCC3(CCN(C(=O)c4cc(F)c(F)cc4F)C3)C2)c1` (stereo not shown) [CBK131993]: 100%. Same read-out and setting: with `O=C(c1cc(F)c(F)cc1F)N1CCC2(CCCN(CCS(=O)(=O)c3ccccc3)C2)C1` (stereo not shown) [CBK132003] the figure was 105%; with `O=C(c1cc(F)c(F)cc1F)N1CCC2(CCCN(CCCn3c(=O)[nH]c4ccccc43)C2)C1` (stereo not shown) [CBK132004], 84.9%.

`O=C1NC(=O)C(CCCCN2CCCC3(CCN(C(=O)c4cc(F)c(F)cc4F)C3)C2)N1` (stereo not shown) [CBK132020]: the viability at 28.5 h, 10 µM came to 97.5%. Same read-out and setting: next, `CN(C)C(=O)CN1CCCC2(CCN(C(=O)c3cc(F)c(F)cc3F)C2)C1` (stereo not shown) [CBK132024]: 93.5%. The same measure, in the same setting: with `Cc1nc(CN2CCCC3(CCN(C(=O)c4cc(F)c(F)cc4F)C3)C2)cs1` (stereo not shown) [CBK132026] the figure was 119%; with `COc1cc(CN2CCCC3(CCN(C(=O)Cc4c[nH]c5ccccc45)C3)C2)cc(OC)c1OC` (stereo not shown) [CBK132027], 99.5%; with `O=C(Cc1c[nH]c2ccccc12)N1CCC2(CCCN(Cc3c(F)cccc3F)C2)C1` (stereo not shown) [CBK132031], 115%.

In the case of `N#Cc1cccc(CN2CCCC3(CCN(C(=O)Cc4c[nH]c5ccccc45)C3)C2)c1` (stereo not shown) [CBK132032], the viability at 28.5 h, 10 µM turned out to be 103%.

Consider `NC(=O)CCN1CCCC2(CCN(C(=O)Cc3c[nH]c4ccccc34)C2)C1` (stereo not shown) [CBK132041], for which the viability at 28.5 h, 10 µM came to 106%. Still for that read-out and setting: with `O=C(Cc1c[nH]c2ccccc12)N1CCC2(CCCN(CCO)C2)C1` (stereo not shown) [CBK132045] the figure was 95.9%; with `NC(=O)CN1CCCC2(CCN(C(=O)Cc3c[nH]c4ccccc34)C2)C1` (stereo not shown) [CBK132046], 87.4%; with `O=C(CN1CCCC2(CCN(C(=O)Cc3c[nH]c4ccccc34)C2)C1)Nc1ncccn1` (stereo not shown) [CBK132048], 86.7%. For the compound `O=C(CN1CCCC2(CCN(C(=O)Cc3c[nH]c4ccccc34)C2)C1)c1ccsc1` (stereo not shown) [CBK132053], the viability at 28.5 h, 10 µM is 96.3%.

Consider `O=C1NC(=O)C(CCCCN2CCCC3(CCN(C(=O)Cc4c[nH]c5ccccc45)C3)C2)N1` (stereo not shown) [CBK132059], for which the viability at 28.5 h, 10 µM was 83.8%. Take `Cc1ccc2cc(CN(Cc3ccccc3)C(=O)NCc3c(Cl)cccc3Cl)c(=O)[nH]c2c1C` [CBK132088]: the viability at 28.5 h, 10 µM stood at 81.8%. On the same count and under the same terms, next, `CCN(CC)Cc1ccc2[nH]c(=O)c(CNCc3ccc(OC)cc3)cc2c1` [CBK132113]: 106%; `O=C(c1cc(F)c(F)cc1F)N1CCC2(CCN(Cc3nc4ccccc4[nH]3)C2)C1` (stereo not shown) [CBK132134]: 89.9%; `O=C(c1cc(F)c(F)cc1F)N1CCC2(CCN(CCN3CCOCC3)C2)C1` (stereo not shown) [CBK132145C]: 102%. As to `O=C1NC(=O)C(CCCCN2CCC3(CCN(C(=O)c4cc(F)c(F)cc4F)C3)C2)N1` (stereo not shown) [CBK132147], the viability at 28.5 h, 10 µM is 84.8%. As to `COc1ccc(C(=O)N2CCC3(CCN(Cc4cccc(C#N)c4)C3)C2)cc1OC` (stereo not shown) [CBK132153], the viability at 28.5 h, 10 µM was 87.7%.

For the compound `COc1ccc(C(=O)N2CCC3(CCN(Cc4cc(=O)[nH]c(=O)[nH]4)C3)C2)cc1OC` (stereo not shown) [CBK132162], the viability at 28.5 h, 10 µM was found to be 108%. On the same count and under the same terms, next, `COc1cc(CC(=O)Nc2cccc(-c3ccc(SC(F)(F)F)cc3)c2)cc(OC)c1OC` [CBK132426]: 100%; `Cc1cc(C)nc(N/C(=N\C(=O)Nc2ccccc2)NCc2cccnc2)n1` [CBK132681]: 92.2%. Still for that read-out and setting: with `O=C(c1ccoc1)N1CCC2(CCCN(Cc3ccc(OC(F)(F)F)cc3)C2)C1` (stereo not shown) [CBK132801] the figure was 114%; with `O=C(c1ccoc1)N1CCC2(CCCN(Cc3c(F)cccc3F)C2)C1` (stereo not shown) [CBK132806], 95.1%.

Take `O=C(CN1CCCC2(CCN(C(=O)c3ccoc3)C2)C1)Nc1ccc(F)c(Cl)c1` (stereo not shown) [CBK132822]: the viability at 28.5 h, 10 µM turned out to be 92.7%. Same read-out and setting: with `CCN1CCCC2(CCN(C(=O)c3ccoc3)C2)C1` (stereo not shown) [CBK132832] the figure was 97.7%. For the compound `O=C1NC(=O)C(CCCCN2CCCC3(CCN(C(=O)c4ccoc4)C3)C2)N1` (stereo not shown) [CBK132833], the viability at 28.5 h, 10 µM was 96.8%. On the same count and under the same terms, next, `Cc1nc(CN2CCCC3(CCN(C(=O)c4ccoc4)C3)C2)cs1` (stereo not shown) [CBK132838]: 97.6%. Regarding `COc1ccc(C(=O)N2CCC3(CCCN(Cc4nc5ccccc5[nH]4)C3)C2)cc1OC` (stereo not shown) [CBK132847], the viability at 28.5 h, 10 µM turned out to be 93.9%. Consider `COc1ccc(C(=O)N2CCC3(CCCN(CC(=O)Nc4ncccn4)C3)C2)cc1OC` (stereo not shown) [CBK132860], for which the viability at 28.5 h, 10 µM stood at 105%. Same read-out and setting: next, `COc1ccc(C(=O)N2CCC3(CCCN(CCN(C)C)C3)C2)cc1OC` (stereo not shown) [CBK132873]: 95.6%.

Staying with this data set, now noted: human, hela cells, % viability, bulk resorufin, single well.
`CCOC(=O)C1(c2ccccc2)CCN(C(=O)c2ccc(OC(F)(F)F)cc2)CC1` [CBK132174]: the viability at 28.5 h, 10 µM was 96.2%. On the same count and under the same terms, next, `CCOC(=O)C1(c2ccccc2)CCN(C(=O)Cc2ccc(Cl)c(Cl)c2)CC1` [CBK132175]: 113%. On the same count and under the same terms, with `CCOC(=O)C1(c2ccccc2)CCN(C(=O)COc2ccc(F)cc2)CC1` [CBK132176] the figure was 93.8%; with `CCOC(=O)C1(c2ccccc2)CCN(C(=O)C2COc3ccccc3O2)CC1` (stereo not shown) [CBK132178], 93.3%; with `CCOC(=O)C1(c2ccccc2)CCN(C(=O)Cc2nnn[nH]2)CC1` [CBK132182], 94.6%. The same measure, in the same setting: with `CCOC(=O)C1(c2ccccc2)CCN(C(=O)COc2ccccc2OC)CC1` [CBK132183] the figure was 87.1%; with `CCOC(=O)C1(c2ccccc2)CCN(C(=O)c2ccc3occc3c2)CC1` [CBK132187], 92.2%; with `CCOC(=O)C1(c2ccccc2)CCN(C(=O)CC2NC(=O)NC2=O)CC1` (stereo not shown) [CBK132196], 93.7%. Regarding `CCOC(=O)C1(c2ccccc2)CCN(C(=O)c2ccco2)CC1` [CBK132199], the viability at 28.5 h, 10 µM amounted to 86.2%. The same measure, in the same setting: next, `CCOC(=O)C1(c2ccccc2)CCN(C(=O)Cc2c[nH]cn2)CC1` [CBK132205]: 94.3%; `CCOC(=O)C1(c2ccccc2)CCN(C(=O)c2ccc3ncccc3c2)CC1` [CBK132206]: 107%.
